Laboratory results as given in patent US20240060990A1, “SPATIAL SIGNALING NETWORKS FOR MULTIPLEXED DRUG RESPONSE MEASUREMENT AND MODELING” (Georgia Tech Research Corporation, priority 2022, published 2024).
Entries after “also recorded” stand apart in the source; their conditions may differ.

Columns and labels:
PC9 cells [1] = details: 0 to 10 nM, 3-day treatment; cited from earlier work
PC9 cells [2] = test: Subpopulation clustering of single cells (Leiden); assay type: cell-based, human; details: 40 nM
p-ERK = details: up to 24 hours; cited from earlier work
p-EGFR (Y1068) = details: PC9 cells; cited from earlier work
sox2/oct4 = test: RapMPI (multiplexed PLA) PPI counts in HCC827 cells, 9 PPI panel; assay type: cell-based, human; details: 12 hours, 9 PPI dataset
Method: (§1) Following that, the cells were then fixed and permeabilized with 1.6% formaldehyde in 1×PBS for 10 minutes at RT and 0.5% Triton X-100 for 10 minutes at RT, respectively. The cells were then blocked using a cell staining medium (CSM) containing 0.5% BSA, and 0.02% Sodium Azide in PBS. […] HCC827 cells were stained with p-ERK overnight followed by 1-hour incubation of secondary antibodies at RT, and 10 mins DAPI staining. The cells were then imaged at 40× magnification, and the intensity levels were analyzed. […] The coverslip was mounted to an acrylic holder for multiple cycles of staining.
(§2) RapMPI on cell cultures: For single color detection, each coverslip prepared with cells was stained with multiple PPIs with one PPI per cycle. The cells were fixed, permeabilized, and then ready for the following staining steps: 1) block the sample with Duolink blocking solution; 2) incubate it with one pair of proteins, conjugated to one PLUS and one MINUS oligonucleotide at 4° C. overnight.
(§3) For multicolor detection, after permeabilization, the cells underwent the following steps: 1) block the sample with Duolink blocking solution; 2) incubate it with two pair of proteins, conjugated to one pair of oligonucleotides at 4° C. overnight. […] After imaging, the samples were incubated with DNase at a 1:50 dilution rate for 4 hours at RT, followed by 3 times 30% formamide washes and 3 times 1×PBS washes.
(§4) PPI detection: PPI signals were detected using a custom algorithm leveraging a traditional image processing pipeline. More specifically, each PPI image was preprocessed as followed: images were first transformed using a top-hat filter of size 3 pixels to reduce the noise around PPI signals, then Laplacian of Gaussian images was used to detect bright local maxima as PPI signals. In 3D images, double detection of PPI was filtered out at the same position in consecutive Z stacks. After detecting all the PPI locations in 3D, PPI was observed within a 2.5-pixel radius (0.045 um) by creating a PPI neighborhood graph of radius threshold 2.5 pixels and getting all connected components in the graph. Finally, the mean position of the unique connected components in the graph was extracted as identified unique PPI signals in 3D.

Bim/Tom20 = test: as above; assay type: cell-based, human; details: 12 hours, 9 PPI dataset
Method: as §1, §2, §3, §4

NF-κB/p-p90RSK = test: as above; assay type: cell-based, human; details: 12 hours, 9 PPI dataset
Method: as §1, §2, §3, §4

cyclin D1/CDK4 = test: as above; assay type: cell-based, human; details: 12 hours, 9 PPI dataset
Method: as §1, §2, §3, §4

p-AKT(S473) = test: RapMIF multiplexed immunofluorescence in PC9 cells, p-AKT; assay type: cell-based, human; details: 40 nM, 48 hours vs control
Text: RapMIF: The RapMIF setup consisted of an autosampler that transferred antibodies and performed washes of the sample automatically and controlled by a custom-written python code (FIGS. 10A-10D). The buffers used during the procedure are 1×PBS (D8537, Sigma), CSM, and Fluorophore bleaching solution. PBS 1× was the wash buffer for the stabilization of the cells and the tubes. CSM was the imaging buffer that helped in the annealing of antibodies with the cells. Fluorophore bleaching solution was the strip buffer used to remove staining after each cycle. The walls on the 96-well plate for the antibodies were pre-washed with 1×PBS. The well plate was covered with foil stickers to ensure a dark condition. […] Once the cells were mounted and the antibodies and buffers were ready for transfer, automatic staining was done by running Python code. […]
Cell multiplexing: Each coverslip prepared with cells was stained with 25 markers using a total of 11-12 cycles (FIG. 10C). […] To quantify the frequencies belonging to the signal that disappears after bleaching, a Fourier analysis of before and after bleaching was performed to indicate the difference in frequencies belonging to the signal.
Image intensity: From nuclei and cytosol cell masks, the mean intensity of markers in each cell area was calculated. […]

[3] = test system: pancytokeratin-positive cells; test: Pan-cytokeratin staining of HCC827 xenograft tissue; assay type: in vivo, mouse; details: 2-month treatment
Text: Tissues: HCC827-derived mouse xenografts were provided by Dr. Sun Shi-yong (Emory University). […] Mice were then euthanized, and the tumor was embedded in OCT for sectioning. The OCT tissues were fixed in acetone, rehydrated, permeabilized in 0.4% Triton X-100, blocked, and ready for multiplexed experiments.

p-EGFR (Y1173) = details: PC9 cells; cited from earlier work

C=CC(=O)Nc1cc(Nc2nccc(-c3cn(C)c4ccccc34)n2)c(OC)cc1N(C)CCN(C)C [Osimertinib]
cell survival rate (PC9 cells [1]): decreased as the concentration has increased from 0 to 10 nM; also recorded: decreased as the concentration was increased from 0 to 10-nM | distribution of treated cells over 12 subpopulations (PC9 cells [2]): mainly distributed in subpopulation 3 and subpopulation 0 | p-ERK, total protein level by western blot (p-ERK): inhibitory role of Osimertinib on p-ERK for up to 24 hours | p-EGFR (Y1068) level (p-EGFR (Y1068)): failed to alter the p-EGFR (Y1068) | sox2/oct4 PPI (sox2/oct4): downregulation | interactions between Tom20 and Bim (Bim/Tom20): Reduced interactions | NF-κB/p-p90RSK PPI (NF-κB/p-p90RSK): effectively inhibited | cyclin D1/CDK4 PPI (cyclin D1/CDK4): inhibitory effect | p-AKT expression (p-AKT(S473)): consistently downregulated; also recorded: consistent downregulation | pancytokeratin-positive cells [3]: more pancytokeratin-positive cells | p-EGFR (Y1173) level (p-EGFR (Y1173)): decreased the p-EGFR (Y1173) level
